# According to US20090012152A1, “Use of Tetramic Acid Derivatives for Controlling Insects from the Genus of the Plane Lice (Sternorrhyncha)” (Bayer CropScience Aktiengesellschaft, priority 2005, published 2009):
# Key:
# Assay type in all cases: in vivo
# [1] = test system: Pulvinaria aurantii; experiment: Example 11: satsuma trees treated against Pulvinaria aurantii; details: 41 days after treatment; live animals counted, Henderson and Tilton; satsuma tree; % a.i.: buprofezin 0.025, I-4 0.0144
# Method: In three replications, in each case one about 4-year-old satsuma tree of the cultivar “Nankan 20” is treated against Pulvinaria aurantii. Here, the active compound Example (I-4) (240 SC) in a tank mix with 0.2% of rapeseed oil methyl ester (500 EW) at the stated application rate is tested against the commercial standard buprofezin at the stated application rate. The application is carried out using a motor-operated knapsack sprayer. Here, each plant is treated with 400 ml of spray liquor.
# (§1) Evaluation is carried out before and 41 days after the treatment by counting the live animals. The efficacy in percent is then calculated according to Henderson and Tilton.
# [2] = test system: Saissetia oleae; experiment: Example 13: orange trees treated against Saissetia oleae; details: nymphs on leaves, g a.i./ha/m crown height: buprofezin 500, I-4 72, I-8 30
# Method: In three replications, in each case two about 8-year-old orange trees are treated against Saissetia oleae. Here, the active compounds Example (I-4) (240 SC) and Example (I-8) (250 SC) in a tank mix with 0.2% a.i. of rapeseed oil methyl ester (500 EW) at the stated application rate are tested against the commercial standard buprofezin in a tank mix with 0.4% a.i. of Oliocin (800 EW) at the stated application rate. The application is carried out using a motor-operated knapsack sprayer. The application rate is 3000 l of water/ha. Two treatments are carried out, at an interval of 29 days.
# Evaluation is carried out 24 and 44 days after the last treatment by rating the kill of the nymphs on the leaves.
# [3] = test system: Ceroplastes rubens; experiment: Example 12: satsuma trees treated against Ceroplastes rubens; details: 41 days after treatment; live animals counted, Henderson and Tilton; satsuma tree; % a.i.: buprofezin 0.025, I-4 0.0072
# Method: In three replications, in each case one about 4-year-old satsuma tree of the cultivar “Nankan 20” is treated against Ceroplastes rubens. Here, the active compound Example (I-4) (240 SC) in a tank mix with 0.1% of rapeseed oil methyl ester (500 EW) at the stated application rate is tested against the commercial standard buprofezin (25 WP) at the stated application rate. The application is carried out using a motor-operated knapsack sprayer. Here, treatment is carried out using an application rate of 400 l of water/ha.
# as §1
# [4] = test system: Orthezia praelonga; experiment: Example 25: orange trees treated against Orthezia praelonga; details: population on leaves, % a.i.: methidathion 0.05, I-4 0.0144, I-9 0.0144
# Method: In two replications, two about 7-year-old orange trees of the cultivar “Pera Rio” are treated against Orthezia praelonga. Here, the active compounds Example (I-4) (240 SC) and Example (I-9) (240 SC), in a tank mix with 0.1% a.i. of Renex, are tested against the commercial standard Methidathion (400 EC), at the stated application rates. The application is carried out using a knapsack sprayer operated with pressurized air. Evaluation is carried out 6 and 16 days after the treatment by rating the kill of the population on the leaves.
# [5] = test system: Selenaspidius articulatus; experiment: Example 19: orange trees treated against Selenaspidius articulatus; details: 100 d after treatment, on leaves, % a.i.: methidathion 0.05, I-9 0.0288, I-4 0.0144
# Method: In three replications, 3-year-old orange trees of the cultivar “Pera natal” are treated against Selenaspidius articulatus. The application is carried out using a motor-operated knapsack sprayer. Here, the active compounds Example (I-9) (240 SC) and Example (I-4) (240 SC) at the stated application rate are tested against the standard methidathion (400 EC) in the stated amounts, applied once. The application rate is 3.3 l of water per tree.
# Evaluation is carried out 100 days after the treatment by rating the kill on the leaves.
# [6] = test system: Parlatoria pergandei; experiment: Example 27 / 18a: orange trees treated against Parlatoria pergandei; details: 73 d after last of two treatments, on fruits, % a.i.: pyriproxyfen 0.005, I-9 0.0096
# Method: The evaluation for Example 18a against Parlatoria pergandei is carried out as part of the test as described in Example 27 and is listed separately in Example 27.
# (§2) In three replications, orange trees of the cultivar “Navelina” are treated against Parlatoria pergandei and Pseudococcus citri. Two applications are carried out at an interval of 77 days using a motor-operated knapsack sprayer. Here, the active compound Example (I-9) (240 SC), in a tank mix with 0.1% a.i. of rapeseed oil methyl ester (500 EW), at the stated amount, is tested against the commercial standard pyriproxyfen (100 EC), at the stated amounts. The application rate is 3000 l of water/ha.
# (§3) Evaluation is carried out 56 days or 73 days after the last treatment by rating the kill in percent on the fruits.
# [7] = test system: Saissetia oleae; experiment: Example 14: orange trees (Navelina) treated against Saissetia oleae; details: 120 d after treatment, kill on branches, % a.i.: Dursban 0.096, I-4 0.012, I-9 0.0054, pyriproxyfen 0.005
# Method: In three replications, orange trees of the cultivar “Navelina” are treated against Saissetia oleae. Here, the active compounds Example (I-4) (240 SC) and Example (I-9) (240 SC) in a tank mix with 0.1% of rapeseed oil methyl ester (500 EW) at the stated application rate are tested against the commercial standards Dursban (480 EC) and pyriproxyfen (100 EC) at the stated application rate. The application is carried out using a motor-operated knapsack sprayer. The application rate is 3200 l of water/ha.
# Evaluation is carried out 120 days after the treatment by rating the kill of the animals on the branches.
# [8] = test system: Pseudococcus citri; experiment: Example 27: orange trees treated against Pseudococcus citri; details: 56 d after last of two treatments, on fruits, % a.i.: pyriproxyfen 0.005, I-9 0.0096
# Method: as §2, §3
# [9] = test system: Lepidosaphes beckii; experiment: Example 18: citrus trees treated against Lepidosaphes beckii; details: 140 days after treatment, larvae on fruits, g a.i./ha/m crown height: pyriproxyfen 50, I-4 48
# Method: In three replications, in plots of a size of about 20 m^2, citrus trees of the cultivar “Oro Nules” are treated against Lepidosaphes beckii. The application is carried out using a high-pressure sprayer. Here, the active compound Example (I-4) (240 SC) in a tank mix with 0.1% a.i. of rapeseed oil methyl ester (500 EW) is tested against the commercial standard pyriproxyfen (100 EC), at the stated application rates. The application rate is 2500 l of water/ha.
# Evaluation is carried out 140 days after the treatment by rating the kill of the larvae on the fruits.
# [10] = test system: Bemisia tabaci; experiment: Example 32: bell peppers treated against Bemisia tabaci; details: larvae on leaves, % a.i.: imidacloprid 0.02, I-9, I-2, I-11 0.0144
# Method: In three replications, plots of a size of 10 m^2 with bell peppers of the cultivar “Italiano” are treated against Bemisia tabaci. The application is carried out using a motor-operated knapsack sprayer. Here, the active compounds Example (I-9) (240 SC), Example (I-2) (60 SC) and Example (I-11) (60 SC) and the commercial standard imidacloprid (200 SL) are applied at the stated application rates. Three applications at an interval of 14 or 15 days are carried out, at an application rate of 1000 or 1100 l of water/ha.
# Evaluation is carried out 7, 14 and 22 days after the second treatment by rating the kill of the animals (larvae) on the leaves.
# [11] = test system: Macrosiphum euphorbiae; experiment: Example 43: aubergines treated against Macrosiphum euphorbiae; details: nymphs on leaves, % a.i.: imidacloprid 0.014, I-9, I-2, I-11 0.0144
# Method: In three replications, plots of a size of 10 m^2 with aubergines of the cultivar “F 100” are treated against Macrosiphum euphorbiae. The application is carried out using a knapsack sprayer operated with pressurized air. Here, the active compounds Example (I-9) (60 SC), Example (I-2) (60 SC) and Example (I-11) (60 SC) and the commercial standard imidacloprid (70 WG) are tested at the stated application rates. Three applications are carried out, at an interval of 7 or 8 days. The application rate is 1000 l of water/ha.
# Evaluation is carried out 7 and 14 days after the second treatment by rating the kill of the nymphs on the leaves.
# [12] = test system: Bemisia argentifolii; experiment: Example 35: aubergines (F 100) treated against Bemisia argentifolii; details: 7 d after last of three treatments, nymphs on leaves, % a.i.: imidacloprid 0.014, I-9, I-2, I-11 0.0144
# Method: In three replications, plots of a size of 10 m^2 with aubergines of the cultivar “F 100” are treated against Bemisia argentifolii. The application is carried out using a knapsack sprayer operated with pressurized air. Here, the active compounds Example (I-9) (60 SC), Example (I-2) (60 SC) and Example (I-11) (60 SC) and the commercial standard imidacloprid (70 WG) are tested at the stated application rates. Three applications are carried out, at an interval or 7 or 8 days. The application rate is 1000 l of water/ha.
# Evaluation is carried out 7 days after the last treatment by rating the kill of the nymphs on the leaves.
smiles,measurement,setting,value
"CC(C)N1C(=O)N(c2ccccc2)CS/C1=N\C(C)(C)C [buprofezin, reference compound]",Effect (%),[1],68%
same,Kill (%) 24 d,[2]; 24 d after last of two treatments,33.5%
same,Kill (%) 44 d,[2]; 44 d after last of two treatments,50.5%
same,Effect (%),[3],50%
"COc1nn(CSP(=S)(OC)OC)c(=O)s1 [methidathion, reference compound]",Kill (%) 6 d,[4]; 6 d after treatment,91%
same,Kill (%) 16 d,[4]; 16 d after treatment,61%
same,Kill (%) 100 d,[5],77%
"CC(COc1ccc(Oc2ccccc2)cc1)Oc1ccccn1 (centres unmarked) [pyriproxyfen, reference compound]",Kill (%) 73 d,[6],97.5%
same,Effect (%) 120 d,[7],100%
same,Kill (%) 56 d,[8],28.8%
same,Kill (%) 140 days,[9],100%
CCCC(=O)OC1=C(c2cc(C)c(C)cc2C)C(=O)NC12CCC(OCC)CC2 (centres unmarked) [Example (I-11)],Kill (%) 7 d,[10]; 7 d after second treatment,85.4%
same,Kill (%) 14 d,[10]; 14 d after second treatment,93.3%
same,Kill (%) 22 d,[10]; 22 d after second treatment,91.3%
same,Kill (%) 7 d,[11]; 7 d after second treatment,98%
same,Kill (%) 14 d,[11]; 14 d after second treatment,99%
same,Kill (%) 7 d,[12],94%
